Laboratory results as given in ChEMBL document CHEMBL5726417, “Therapeutic agent for pain” (2017).

Each compound was assayed against 11-beta-hydroxysteroid dehydrogenase 1 (Rattus norvegicus, UniProt P16232) (assay: Inhibition Assay: The procedure for measuring the 11β-HSD1-inhibitory activity is as follows. The enzyme reaction and the measurement were carried out using a 384-well plate. The enzyme was prepared in accordance with Journal of Biological Chemistry, 2001, Vol. 276, p. 21343-21350. The reaction was carried out by adding a test compound at various concentrations to a reaction liquid consisting of a 5 mM phosphate buffer (pH 6.6), 200 nM cortisone, 40 μM reduced nicotinamide adenine dinucleotide phosphate (NADPH), and rat recombinant 11β-HSD1, followed by incubating at room temperature for one hour (10 μl/well). The test compound was prepared by dissolving in dimethyl sulfoxide (DMSO) such that a DMSO concentration reached 1% in the reaction liquid. After the enzyme reaction was completed, the enzyme inhibitory action was measured by detecting cortisol using a homogeneous time-resolved fluorescence (HTRF) method. Each of a d2-labeled cortisol containing 400 μM carbenoxolone and a cryptate-labeled cortisol antibody (CIS Bio International Co., Ltd.) was added at 5 μl/well, followed by incubating at room temperature for 2 hours, and then the fluorescence intensity was measured using a fluorophotometer (trade name: ARVO HTS 1420, Perkin Elmer/Wallac), and the enzyme inhibitory activity was calculated from the fluorescence intensity ratio of two wavelengths (665 nm/620 nm).The measurement results were calculated by averaging the values of 3 wells of the same condition. The ratio when DMSO was added instead of the test compound was taken as 0% and the ratio when 11β-HSD1 was not added was taken as 100%, thereby calculating the 50% inhibition concentration of the test compound as IC50 of the compound inhibitory activity.).
Sequence of 11-beta-hydroxysteroid dehydrogenase 1 (P16232 whole entry): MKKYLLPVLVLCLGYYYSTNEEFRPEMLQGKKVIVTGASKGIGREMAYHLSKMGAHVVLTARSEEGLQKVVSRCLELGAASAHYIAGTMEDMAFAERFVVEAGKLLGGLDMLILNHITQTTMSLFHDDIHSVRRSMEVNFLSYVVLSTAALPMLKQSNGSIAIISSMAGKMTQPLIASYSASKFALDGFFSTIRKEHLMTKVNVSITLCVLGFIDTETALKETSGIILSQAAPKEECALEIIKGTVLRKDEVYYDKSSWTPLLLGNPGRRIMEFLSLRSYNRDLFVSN

Row | IC50 | SMILES
1 | 70 nM | CCn1c(-c2ccc(C(N)=O)cc2)nnc1C(C)(C)Oc1c(F)cc(Cl)cc1F
2 | 23 nM | CC(C)n1c(-c2ccc(C(N)=O)cc2F)nnc1C(C)(C)Oc1c(F)cc(F)cc1F
3 | 135 nM | Cn1c(-c2ccc(C(N)=O)cc2F)nnc1C(C)(C)Oc1c(F)cc(Cl)cc1F [CLOFUTRIBEN]
4 | 52 nM | Cn1c(-c2ccc(F)cc2Cl)nnc1C(C)(C)Oc1c(F)cc(F)cc1F
